Melting point data for 89 molecules are collected here from a melting point compilation (Tetko et al.; mined from patent text by program, amines drawn as free bases though some values may be those of a salt).

`O=C1CCC(N2Cc3c(CNC(=O)c4ccncc4)cccc3C2=O)C(=O)N1` (centres undefined): the melting point was in the range of 282 to 284 °C. Then `C[C@H](N)c1ccc(O)cc1`, with 120 °C; and `CC(C)c1c(I)sc2ncc(C#N)c(Cl)c12`, with 177 to 179 °C; and `Cc1nc(N)c2c(=O)n(C)c(=O)n(C)c2n1`, with 267 °C.

As for `COC1CC2C3CCC4=CC(=O)CCC4(C)C3(F)C(O)CC2(C)C1(OC(C)=O)C(=O)CCl` (centres undefined), the melting point fell in the range of 243 to 245 °C. Then `CS(=O)(=O)c1ccc(-c2sc(Nc3cc(Cl)cc(Cl)c3)nc2-c2ccc(F)cc2)cc1`, with 287 to 288 °C; and `COc1ccnnc1NS(=O)(=O)c1cccc(Cl)c1Cl`, with 210 to 211 °C; and `CC(C)(Cc1ccccc1)C(=O)C(Cc1ccccc1)n1cncn1` (centres undefined), with 45 to 50 °C. `O=c1[nH]c2ccc([N+](=O)[O-])cc2s1` came in with a melting point of 252 °C. `COc1ccc(Cc2nc3cccc(CCCO)c3o2)cc1OC`: the melting point fell in the range of 95 to 97 °C. Then `CCCOc1ccc2[nH]c(-c3cc(C)c(O)c(C)c3)c(C)c2c1`, with 124 °C; and `CCn1c(=O)c2[nH]c(-c3ccc(S(=O)(=O)N4CCN(C)CC4)cc3)nc2n(CC)c1=O`, with 305 to 307 °C; and `COc1cc(-c2nc3ccc(OCCCN(C)C)cc3n2Cc2ccccc2)cc(OC)c1OC`, with 112 °C. Then `COc1ccc2cc([C@H](C)C(=O)OCC(=O)N3CCC(CO[N+](=O)[O-])CC3)ccc2c1`, with 94 to 95 °C. The same measure for `COC(=O)c1ccc(-c2cnc3[nH]c(=O)n(CC4CCCCC4)c3n2)cc1`: 253 to 255 °C; for `CC1(CC(CO)CO)SCCS1`: 72 to 73 °C; for `CCOC(=O)c1c(=O)c2cc3c(cc2n2c(C)csc12)OCO3`: 308 to 311 °C. `OC(CCCl)COc1ccc(F)cc1` (centres undefined) registered a melting point of 53 to 55 °C. Then `CCCCCCCCCCC[C@]1(C)OO[C@@H]2C[C@H]1CC(=O)[C@@H]2C`, with 42 °C; and `O=C1Nc2cccnc2N(CCCCCCN2CCCCC2)c2ccccc21`, with 131 to 132 °C; and `O=S(=O)(Cl)C(F)(F)C(F)(F)C(F)(F)C(F)(F)C(F)(F)C(F)(F)C(F)(F)C(F)(F)F`, with 36 °C. Then `NS(=O)(=O)OCCOS(N)(=O)=O`, with 98.5 to 101 °C.

`c1cnn(Cc2ccc3c(c2)Cc2c(-c4ccsc4)n[nH]c2-3)c1` came in with a melting point of 262 to 270 °C.

Molecule `CC1(C)CC(=C[C@H]2[C@H](C(=O)O)C2(C)C)CC(C)(C)C1` (relative stereo) showed a melting point of 116 °C. Then `CCOC(=O)c1cc2n(c1)CN(CCC#N)c1ccccc1-2`, with 102 to 104 °C; and `COc1cc(-c2nc(-c3ccc(N(C)C)cc3)c(C)o2)ccc1O`, with 170 to 173 °C. Then `CCOCn1c(Cc2ccccc2)c(C(C)C)c(=O)[nH]c1=O`, with 111 °C; and `ON=C1CCN(CC2c3ccccc3CCc3ccccc32)CC1`, with 199 to 202 °C.

For the molecule `COc1cc2c(Nc3ccc(Sc4nccn4C)c(Cl)c3)c(C#N)cnc2cc1OCCN1CCC(N2CCCC2)CC1`, the melting point was 127 to 130 °C. The same measure for `Fc1ccc(-c2nnc(S)nc2-c2ccc(F)cc2)cc1`: 180 to 182 °C; for `COc1cc(C=C2NC(=O)NC2=O)cc(OC)c1OC`: 266 to 268 °C; for `COC1=C(OC)C(O)C(CC=C(C)CCC=C(C)CCC=C(C)C)C(C)C1=O` (centres undefined): 48 to 52 °C.

Take `O=S(=O)(O)c1ccc(Nc2ncnc3ccc(Cl)cc23)cc1`: the melting point was more than 300 °C. The same measure for `Ic1nnnn1Cc1ccccc1`: 122 °C; for `CS(=O)(=O)c1ccccc1C(=O)C(C#N)C(=O)C1CC1` (centres undefined): 155 °C. The same measure for `CCC1CC(=O)N(Cc2ccc(NS(C)(=O)=O)cc2)N=C1c1ccc(OC)c(OC2CCCC2)c1` (centres undefined): 69 °C; for `Nc1ccc(Oc2ccc(P(=O)(c3ccccc3)c3ccccc3)c(Oc3ccc(N)cc3)c2)cc1`: 272 to 275 °C; for `COc1ccc(C2=CCCCc3cc(OCc4ccccc4)ccc32)cc1`: 76 to 78 °C. Then `Cc1c(CCC(=O)O)c[nH]c1C=O`, with 128 to 134 °C; and `O=C(O)CCc1cn(Cc2ccc(OCc3cccs3)cc2)cc1-c1ccccc1`, with 127 to 128 °C; and `CC1(C)C(=NOCc2ccccc2)C(c2ccc(S(C)(=O)=O)cc2)=C1c1ccccc1`, with 56 to 61 °C. `Cc1cc(C)cc(C#N)c1` gave a melting point of 51 to 52 °C. The same measure for `C=Cc1c(C(C)C)nc(C(C)C)c(CO)c1-c1ccc(F)cc1`: 119 to 120 °C. The same measure for `Cc1cc2c(cc1C)C(=O)C(Br)=C(N)C2=O`: 228 °C. The same measure for `COCCOc1cc2ncc(C#N)c(Cl)c2cc1O`: 174 to 175 °C; for `O=c1cc(O)nc2sc(CCC3CCCCC3)nn12`: 215 to 219 °C.

Molecule `CCCCCCCCC(SCCCCCC)C(=O)Nc1c(OC)ccc2ncccc12` (centres undefined) yielded a melting point of 88 to 89 °C. Then `CCCNCCc1c[nH]c2ccc(NC(N)=O)cc12`, with 146 to 147 °C; and `CCCCc1nc2ccc([C@H]3C[C@H](CO)ON3C)cc2c(=O)n1Cc1ccc(-c2ccccc2-c2nnn[nH]2)cc1` (relative stereo), with 110 °C. In turn, `COC(=O)c1ccc(OC2=C3N=C4CCCCC4=C3C(Cc3ccc(OC)c(OC)c3)C=C2)o1` (centres undefined) had a melting point of 100 to 101 °C.

Molecule `Cn1cc(-c2cccc(O)c2)c(=O)c(C2CCCCC2)c1` came in with a melting point of 155 to 165 °C. The same measure for `Cc1nc(-n2ccc(Oc3ccccc3)cc2=O)sc1C(=O)NCc1ccccc1`: 67 to 70 °C.

Molecule `CC(C)[C@H]1OC[C@H](Nc2nnc(Cc3ccc(O)nc3)c3ccccc23)CO1` showed a melting point of 108 to 109 °C. The same measure for `CCOC(=O)COC(=O)COc1ccc(OCC(=O)OCC)cc1NC(=O)c1ccc(OCCCCc2ccccc2)cc1`: 64 °C. Regarding `O=C(NC1CCN(CCc2ccccc2)CC1)c1ccccc1`, the melting point was in the range of 164 to 167 °C.

In the case of `CC(CC1=Nc2cc(Cl)ccc2S(=O)(=O)N1)CC(C)(C)C` (centres undefined), the melting point is 243 to 244 °C.

`COc1ccc(/C=C/c2ccc3c(=O)[nH]ncc3c2)cc1` gave a melting point of 280 to 289 °C. Then `COC(=O)c1ccc(Cc2cn(C(C)C)c3ccc(C=CCC(=O)N(C)C)cc23)c(OC)c1`, with 118 to 120 °C; and `O=C(O)c1ccc2c(c1)C(=O)C(c1nc3ccccc3cc1O)C2=O` (centres undefined), with more than 350 °C. For `CC(C)(C)OC1CC(n2cnc3c(Cl)ncnc32)C2CC12COCc1ccccc1` (centres undefined), the melting point was in the range of 112 to 113 °C. For `CCCS(=O)c1sc(C(N)=O)c2c1-c1c(cnn1C)CC2` (centres undefined), the melting point is 194 to 195 °C. The same measure for `CC1(C)CC2(CC(C)(C)N1c1nc(Cl)nc(N3CCOCC3)n1)OCCO2`: 154 to 156 °C; for `COC(=O)C(CO)N(Cc1cc(F)ccc1[N+](=O)[O-])S(=O)(=O)c1ccc(OC)cc1` (centres undefined): 83 to 88 °C; for `O=C1c2ccccc2C(=O)N1C/C=C/CCl`: 108 to 110 °C. In the case of `CC(=O)Nc1cccc2c1C(=O)C1(NC(C)=O)c3ccc(C(C)C)cc3OC21O` (centres undefined), the melting point lay in the range of 189 to 191 °C. With `COc1ccc(C2CCc3c(OC(C)=O)cc(OC(C)=O)cc3O2)cc1OC(C)=O` (centres undefined), the melting point is 106 to 107 °C. Then `CCCCCCOc1cc(-c2cccc(N)c2)c(OCCCCCC)cc1-c1cccc(N)c1`, with 105 to 106 °C; and `COc1cc2cc3c(Nc4ccc(Sc5nccn5C)c(Cl)c4)c(C#N)cnc3cc2cc1OCCn1ccnn1`, with 201 to 207 °C.

Take `CCC1(CCn2ccnc2)SCCS1`: the melting point is 118 to 121 °C.

`O=C(c1ccc(Cl)cc1)c1ccc2[nH]c(=O)nc(-c3cccc(Cl)c3)c2c1` registered a melting point of 256 °C. The same measure for `O=C1NCN(c2ccccc2)C12CCN(CCCOc1ccc(F)cc1Cl)CC2`: 154 to 155 °C; for `O=c1oc2c(Br)cccc2cc1S(=O)(=O)Nc1ccc(Br)cc1`: 206 to 208 °C; for `Cc1nnc(-c2sc(N3CCN(Cc4ccccc4)C3=O)nc2C)[nH]1`: 284 to 287 °C. The same measure for `CCC(O)(c1ccc(OCc2ccccc2)cc1)c1cccc(Cl)c1` (centres undefined): 52 to 53 °C; for `Cc1ccccc1NC(=O)Nc1ccc(NC(=O)C(CC(=O)Nc2ccc(C(=O)O)cc2)c2ccccc2)cc1` (centres undefined): 169 °C. Then `COc1ccc2c(C(=O)C(F)(F)F)c[nH]c2c1`, with 206 to 208 °C; and `CC(C)(C)OC(=O)N1CCC(C)(c2nc(-c3ccncc3)c(-c3ccc(F)cc3)[nH]2)CC1`, with 157 to 160 °C; and `Nc1ncc2cc(-c3ccccc3)c(O)nc2n1`, with 390 to 395 °C. For the molecule `COc1ccc(C(=O)Nc2ccccc2)c(C)c1`, the melting point lay within 149 to 150 °C. Then `CC(C)(C)C(NC(=O)c1ccc(Cl)cc1)NS(=O)(=O)Nc1cccnc1` (centres undefined), with 166 to 167 °C. Then `CCOc1ccc2cccnc2c1[N+](=O)[O-]`, with 161 to 164 °C; and `CC(=O)Nc1scc(C(C)(C)C)c1C(N)=O`, with 251 °C; and `COc1ccc(-c2[nH]nc3c2C(=O)c2c(NC(=O)NNC(=O)CCCc4ccccc4)cccc2-3)cc1`, with 269 °C. The same measure for `O=c1[nH]c2c(Cl)cccc2c(=O)n1CCCN1CC=C(c2cccc(C(F)(F)F)c2)CC1`: 205 to 210 °C. As for `CNc1ncc(-c2ccccc2)c(-c2ccccc2)n1`, the melting point was 136 to 138 °C. `COc1cc2c(cc1OC)C(C(S)(C#N)CCC(=O)OCCC(C)C)=NCC2` (centres undefined) gave a melting point of 120 °C. Then `CC(=O)Oc1cc(OCC(OC(C)=O)c2ccc3c(c2)C(C)(C)CCC3(C)C)ccc1C(=O)O` (centres undefined), with 88 to 89 °C; and `COC(=O)c1ccc(Cc2c[nH]c3ccc(C(=O)OC)cc23)c(OC)c1`, with 136 to 138 °C; and `COCc1cn(-c2cccc(C(F)(F)F)c2)nc(C(C)=O)c1=O`, with 141 to 143 °C.
